Test results taken from US20260250290A1 (BRISTOL-MYERS SQUIBB COMPANY, priority 2023, published 2026).
Structures can show the parent of a compound that is named as a salt.

Target: T1, full length SGK1 (Homo sapiens, UniProt O00141)
T1 construct: 125 μM full length SGK1 (Life Technologies Part #PR7358A); purchased Life Technologies PR7358A
T1 sequence (O00141 1-431): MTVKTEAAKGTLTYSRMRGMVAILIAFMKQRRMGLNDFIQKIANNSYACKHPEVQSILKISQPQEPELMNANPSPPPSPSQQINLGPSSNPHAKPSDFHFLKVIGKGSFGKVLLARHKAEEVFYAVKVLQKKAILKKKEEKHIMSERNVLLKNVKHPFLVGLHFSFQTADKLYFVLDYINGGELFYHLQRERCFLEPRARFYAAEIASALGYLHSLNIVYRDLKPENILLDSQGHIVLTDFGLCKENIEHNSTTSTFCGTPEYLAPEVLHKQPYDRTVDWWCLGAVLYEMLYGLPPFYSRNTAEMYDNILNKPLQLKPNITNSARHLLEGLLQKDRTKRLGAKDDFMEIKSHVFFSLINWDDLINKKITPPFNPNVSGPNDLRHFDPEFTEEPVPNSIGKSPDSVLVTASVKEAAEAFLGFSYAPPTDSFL
Assay: SGK1 inhibition Assay A (Caliper LabChip electrophoretic separation of fluorescent peptide substrate and phosphorylated product)
Format: biochemical
Settings: Assay A; 20 μM ATP, 40 min incubation; read-out: SGK1 IC50

SMILES | IC50
NC(=O)c1ccc(-c2cc(N3CCC[C@@H](NC(=O)c4sc(Cl)cc4OCCN4CCOCC4)C3)c3c(N)ncnn23)cc1F [Example 163, (R)-N-(1-(4-amino-7-(4-carbamoyl-3-fluorophenyl)pyrrolo [2,1-f][1,2,4]triazin-5-yl)piperidin-3-yl)-5-chloro-3-(2-morpholinoethoxy) thiophene-2-carboxamide, TFA] | 6 nM
CC(C)(O)CCOc1cc(Cl)sc1C(=O)N[C@@H]1CCCN(c2cc(-c3ccnc(F)c3)n3ncnc(N)c23)C1 [Example 166, (R)—N-(1-(4-amino-7-(2-fluoropyridin-4-yl)pyrrolo[2,1-f][1,2,4]triazin-5-yl)piperidin-3-yl)-5-chloro-3-(3-hydroxy-3-methylbutoxy)thiophene-2-carboxamide] | 3 nM
C=Cc1cc(C)sc1C(=O)N[C@@H]1CCCN(c2cc(-c3ccnc(F)c3)n3ncnc(N)c23)C1 [Example 169, (R)—N-(1-(4-amino-7-(2-fluoropyridin-4-yl)pyrrolo[2,1-f][1,2,4]triazin-5-yl)piperidin-3-yl)-5-methyl-3-vinylthiophene-2-carboxamide] | 12 nM
Cc1cc(Br)c(C(=O)N[C@@H]2CCCN(c3cc(-c4ccnc(F)c4)n4ncnc(N)c34)C2)s1 [Example 170, (R)—N-(1-(4-amino-7-(2-fluoropyridin-4-yl)pyrrolo[2,1-f][1,2,4]triazin-5-yl)piperidin-3-yl)-3-bromo-5-methylthiophene-2-carboxamide] | 6 nM
CN(C)CCOc1cc(Cl)sc1C(=O)N[C@@H]1CCCN(c2cc(C3=CCNC3)n3ncnc(N)c23)C1 [Example 171, (R)—N-(1-(4-amino-7-(2,5-dihydro-1H-pyrrol-3-yl)pyrrolo[2,1-f][1,2,4]triazin-5-yl)piperidin-3-yl)-5-chloro-3-(2-(dimethylamino)ethoxy)thiophene-2-carboxamide, 3 TFA] | 16 nM
CN(C)CCOc1cc(Cl)sc1C(=O)N[C@@H]1CCCN(c2cc(C3=CCNCC3)n3ncnc(N)c23)C1 [Example 172, (R)—N-(1-(4-amino-7-(1,2,3,6-tetrahydropyridin-4-yl)pyrrolo[2,1-f][1,2,4]triazin-5-yl)piperidin-3-yl)-5-chloro-3-(2-(dimethylamino)ethoxy)thiophene-2-carboxamide, 3 TFA] | 350 nM
COC(=O)N1CC=C(c2cc(N3CCC[C@@H](NC(=O)c4sc(Cl)cc4OCCN(C)C)C3)c3c(N)ncnn23)CC1 [Example 174, methyl (R)-4-(4-amino-5-(3-(5-chloro-3-(2-(dimethylamino)ethoxy)thiophene-2-carboxamido)piperidin-1-yl)pyrrolo[2,1-f][1,2,4]triazin-7-yl)-3,6-dihydropyridine-1(2H)-carboxylate] | 37 nM
CN(C)CCOc1cc(Cl)sc1C(=O)N[C@@H]1CCCN(c2cc(C3=CCN(C(=O)C4CC4)C3)n3ncnc(N)c23)C1 [Example 177, (R)-N-(1-(4-amino-7-(1-(cyclopropanecarbonyl)-2,5-dihydro-1H-pyrrol-3-yl)pyrrolo[2,1-f][1,2,4]triazin-5-yl)piperidin-3-yl)-5-chloro-3-(2-(dimethylamino)ethoxy) thiophene-2-carboxamide, 2 TFA] | 5 nM
CN(C)CCOc1cc(Cl)sc1C(=O)N[C@@H]1CCCN(c2cc(C3=CCN(C(=O)C4CCC4)C3)n3ncnc(N)c23)C1 [Example 178, (R)-N-(1-(4-amino-7-(1-(cyclobutanecarbonyl)-2,5-dihydro-1H-pyrrol-3-yl)pyrrolo[2,1-f][1,2,4]triazin-5-yl)piperidin-3-yl)-5-chloro-3-(2-(dimethylamino)ethoxy) thiophene-2-carboxamide, 2 TFA] | 6 nM
CN(C)CCOc1cc(Cl)sc1C(=O)N[C@@H]1CCCN(c2cc(C3=CCN(C(=O)C4CC(F)(F)C4)C3)n3ncnc(N)c23)C1 [Example 179, (R)-N-(1-(4-amino-7-(1-(3,3-difluorocyclobutane-1-carbonyl)-2,5-dihydro-1H-pyrrol-3-yl)pyrrolo[2,1-f][1,2,4]triazin-5-yl)piperidin-3-yl)-5-chloro-3-(2-(dimethylamino)ethoxy) thiophene-2-carboxamide, 2 TFA] | 8 nM
CC(=O)N1CC=C(c2cc(N3CCC[C@@H](NC(=O)c4sc(Cl)cc4OCCN(C)C)C3)c3c(N)ncnn23)CC1 [Example 180, (R)—N-(1-(7-(1-acetyl-1,2,3,6-tetrahydropyridin-4-yl)-4-aminopyrrolo[2,1-f][1,2,4]triazin-5-yl)piperidin-3-yl)-5-chloro-3-(2-(dimethylamino)ethoxy)thiophene-2-carboxamide 2 TFA] | 47 nM
CN(C)CCOc1cc(Cl)sc1C(=O)N[C@@H]1CCCN(c2cc(C3=CCN(C(=O)CC(F)(F)F)CC3)n3ncnc(N)c23)C1 [Example 181, (R)-N-(1-(4-amino-7-(1-(3,3,3-trifluoropropanoyl)-1,2,3,6-tetrahydropyridin-4-yl)pyrrolo[2,1-f][1,2,4]triazin-5-yl)piperidin-3-yl)-5-chloro-3-(2-(dimethylamino)ethoxy) thiophene-2-carboxamide, 2 TFA] | 17 nM
CN(C)CCOc1cc(Cl)sc1C(=O)N[C@@H]1CCCN(c2cc(C3=CCN(C(=O)C4CC4)CC3)n3ncnc(N)c23)C1 [Example 182, (R)-N-(1-(4-amino-7-(1-(cyclopropanecarbonyl)-1,2,3,6-tetrahydropyridin-4-yl)pyrrolo[2,1-f][1,2,4]triazin-5-yl)piperidin-3-yl)-5-chloro-3-(2-(dimethylamino)ethoxy) thiophene-2-carboxamide, 2 TFA] | 35 nM
CN(C)CCOc1cc(Cl)sc1C(=O)N[C@@H]1CCCN(c2cc(C3=CCN(C(=O)C4CCC4)CC3)n3ncnc(N)c23)C1 [Example 183, (R)-N-(1-(4-amino-7-(1-(cyclobutanecarbonyl)-1,2,3,6-tetrahydropyridin-4-yl)pyrrolo[2,1-f][1,2,4]triazin-5-yl)piperidin-3-yl)-5-chloro-3-(2-(dimethylamino)ethoxy) thiophene-2-carboxamide, 2 TFA] | 42 nM
CN(C)CCOc1cc(Cl)sc1C(=O)N[C@@H]1CCCN(c2cc(C3=CCN(C(=O)C4CC(F)(F)C4)CC3)n3ncnc(N)c23)C1 [Example 184, (R)-N-(1-(4-amino-7-(1-(3,3-difluorocyclobutane-1-carbonyl)-1,2,3,6-tetrahydropyridin-4-yl)pyrrolo[2,1-f][1,2,4]triazin-5-yl)piperidin-3-yl)-5-chloro-3-(2-(dimethylamino)ethoxy) thiophene-2-carboxamide, 2 TFA] | 36 nM

The remaining compounds from weak to strong by IC50, led by results:

IC50 | SMILES
5 nM | COCCOc1cc(Cl)sc1C(=O)N[C@@H]1CCCN(c2cc(-c3ccc(C(N)=O)c(F)c3)n3ncnc(N)c23)C1 [Example 162, (R)-N-(1-(4-amino-7-(4-carbamoyl-3-fluorophenyl)pyrrolo [2,1-f][1,2,4]triazin-5-yl)piperidin-3-yl)-5-chloro-3-(2-methoxyethoxy) thiophene-2-carboxamide]
4 nM | COC(=O)N1CC=C(c2cc(N3CCC[C@@H](NC(=O)c4sc(Cl)cc4OCCN(C)C)C3)c3c(N)ncnn23)C1 [Example 173, methyl (R)-3-(4-amino-5-(3-(5-chloro-3-(2-(dimethylamino)ethoxy)thiophene-2-carboxamido)piperidin-1-yl)pyrrolo[2,1-f][1,2,4]triazin-7-yl)-2,5-dihydro-1H-pyrrole-1-carboxylate, 2 TFA]
4 nM | CC(=O)N1CC=C(c2cc(N3CCC[C@@H](NC(=O)c4sc(Cl)cc4OCCN(C)C)C3)c3c(N)ncnn23)C1 [Example 175, (R)—N-(1-(7-(1-acetyl-2,5-dihydro-1H-pyrrol-3-yl)-4-aminopyrrolo[2,1-f][1,2,4]triazin-5-yl)piperidin-3-yl)-5-chloro-3-(2-(dimethylamino)ethoxy)thiophene-2-carboxamide, 2 TFA]
4 nM | CN(C)CCOc1cc(Cl)sc1C(=O)N[C@@H]1CCCN(c2cc(C3=CCN(C(=O)CC(F)(F)F)C3)n3ncnc(N)c23)C1 [Example 176, (R)-N-(1-(4-amino-7-(1-(3,3,3-trifluoropropanoyl)-2,5-dihydro-1H-pyrrol-3-yl)pyrrolo[2,1-f][1,2,4]triazin-5-yl)piperidin-3-yl)-5-chloro-3-(2-(dimethylamino)ethoxy) thiophene-2-carboxamide, 2 TFA]
2 nM | Nc1ncnn2c(-c3ccnc(F)c3)cc(N3CCC[C@@H](NC(=O)c4csc(Cl)c4)C3)c12 [Example 161, (R)-N-(1-(4-amino-7-(2-fluoropyridin-4-yl)pyrrolo[2,1-f][1,2,4]triazin-5-yl)piperidin-3-yl)-5-chlorothiophone-3-carboxamide]
2 nM | CN(C)CCOc1cc(Cl)sc1C(=O)N[C@@H]1CCCN(c2cc(-c3ccc(C(N)=O)c(F)c3)n3ncnc(N)c23)C1 [Example 164, (R)-N-(1-(4-amino-7-(4-carbamoyl-3-fluorophenyl)pyrrolo [2,1-f][1,2,4]triazin-5-yl)piperidin-3-yl)-5-chloro-3-(2-(dimethylamino)ethoxy)thiophene-2-carboxamide, 2 TFA]
1 nM | CN1CCN(CCOc2cc(Cl)sc2C(=O)N[C@@H]2CCCN(c3cc(-c4ccnc(F)c4)n4ncnc(N)c34)C2)CC1 [Example 167, (R)—N-(1-(4-amino-7-(2-fluoropyridin-4-yl)pyrrolo[2,1-f][1,2,4]triazin-5-yl)piperidin-3-yl)-5-chloro-3-(2-(4-methylpiperazin-1-yl)ethoxy)thiophene-2-carboxamide, 2 TFA]
